Measured values: patent US9879243B2, “Culture medium for cell growth and transfection” (LIFE TECHNOLOGIES CORPORATION, priority 2001, dated 2018)

Tests used:
CHO cells = test: Effect of replacement compounds on the growth of CHO cells in CD CHO medium without transferrin, three passages; assay type: cell-based, Chinese hamster; settings: third passage
Procedure, shortened: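 CHO cells seeded at 1×10^5 viable cells/mL in transferrin-free CD CHO medium, 37 °C, 8% CO2, subcultured every 4 days for three passages. Compounds tested alone or complexed with ferric chloride or ferrous sulfate at 25, 50 and 100 μM; growth as mean percentage of the 5 μg/mL holo-transferrin control at the third passage, duplicate cultures.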

Sp2/0 cells = test: Effect of replacement compounds on the growth of Sp2/0 cells in CD Hybridoma medium without transferrin, three passages; assay type: cell-based; settings: third passage
293 cells = test: β-galactosidase expression after transfection (pCMV-SPORT-β-gal, LIPOFECTAMINE 2000) of 293 cells in monolayer culture, 24-well plates; assay type: cell-based, human; settings: Table 8, replacement compounds 25 μM in test media, 24 hrs post-transfection
Procedure: When cultured in suspension, cells were split to 3×10^5 viable cells per ml at each passage. On the week of transfection cells were seeded at 3×10^5 viable cells per ml. After ˜48 hrs of growth (day 2) cells were vortexed for 30 seconds and counted and appropriate volumes used for transfection as described in procedures below.
In addition, the base media comprises 2.4 g/L NaHCO3, 2.98 g/L Hepes, 4 mM L-glutamine and 3 ml/L PLURONIC F-68 (Invitrogen Corp., Carlsbad, Calif.).
The osmolarity is adjusted to from about 275-310 mOsm, preferably about 280 mOsm and the pH is adjusted to from about 7.0 to about 7.45 preferably about 7.4 respectively.
Three wells were set up for each treatment. A volume of media corresponding to 3×10^6 viable cells was centrifuged. The supernatant was removed and the cells re-suspended in 600 μl test media. Each well of a 24 well plate received 200 μl of the re-suspended cells.
To prepare the nucleic acid for the transfection experiments, 93 μl test media+3 μl DNA+24 μl LIPOFECTAMINE 2000 were combined in a microfuge tube and complexed for 30 minutes. A 40 μl aliquot of complex was added to each well. 250 μl test media was added to each well five hours after addition of complex. The final cell concentration was 1×10^6 viable cells per well; the final DNA concentration was 1 μg per 1×10^6 viable cells and the final LIPOFECTAMINE 2000 concentration was 8 μl per 1×10^6 viable cells.
24 hrs post-transfection, samples were collected for β-galactosidase quantitation. The contents of duplicate wells were pooled (i.e. ˜2×10^6 cells for the assay) for each sample and transferred to a microfuge tube. The cells were centrifuged, the supernatant was removed and the cells were re-suspended in 1 ml of D-PBS. The cells were pelleted a second time and re-suspended in 1 ml of D-PBS. The samples were then stored at −70° C. Prior to the assay for β-galactosidase, samples were freeze-thawed a total of five times.
293 cells were grown in monolayer culture in the presence of the various replacement compounds indicated and transfection experiments performed as described above. The results are shown in Table 8 and the values are β-galactosidase activity expressed as nanograms of β-galactosidase per 2×10^6 cells. A comparison was made between the transfection efficiency of DNA complexes formed in D-MEM medium and DNA complexes formed in test medium. […]
For cells transfected in 24-well plates, cells densities used were 1×10^6 viable cells per well.

[1] = 25 μM, control 5 μg/mL human holo-transferrin

Compound	mean percentage of control growth (CHO cells; [1])	mean percentage of control growth (CHO cells; 50 μM)	mean percentage of control growth (CHO cells; 100 μM)	mean percentage of control growth (Sp2/0 cells; [1])	mean percentage of control growth (Sp2/0 cells; 50 μM)	mean percentage of control growth (Sp2/0 cells; 100 μM)	β-galactosidase activity; D-MEM used for complexing, Test media to re-suspend cells (293 cells)	β-galactosidase activity; Test Media used for complexing and to re-suspend cells (293 cells)
CCc1occc(=O)c1O [2-Ethyl-3-Hydroxy-4-Pyrone]	9 percentage of control growth	60 percentage of control growth	113 percentage of control growth	0 percentage of control growth	75 percentage of control growth	116 percentage of control growth	378 nanograms of β-galactosidase per 2×10^6 cells	1827 nanograms of β-galactosidase per 2×10^6 cells
Diethylenetriamine Penta-Acetic Acid•Ferrous Sulfate	135 percentage of control growth	137 percentage of control growth	147 percentage of control growth	54 percentage of control growth	90 percentage of control growth	91 percentage of control growth	234 nanograms of β-galactosidase per 2×10^6 cells	720 nanograms of β-galactosidase per 2×10^6 cells
